US7332495B2 (priority 2002, dated 2008)
Structures can show the parent of a compound that is named as a salt. Where two headings read alike, the source gives them in different places. Values belong to the molecule of their own block, whether it stands above or below them.

What was measured:
rat [1] = assay: animal or person; conditions: for responders at 20 mg/kg: ip; for Increase (hot plate) (%): 20 mg/kg, Table 5 summary
Experimental: Using 55° C. hot plate pain threshold detector (available from Ninghai Baishi Electronic Medical Instrument Co., Zheijiang, China) the threshold change before and after administration of a pharmaceutical composition of the present invention is tested. […] hind paw was scrubbed with alcohol cotton ball before the experiment. The regular pain threshold was tested twice for each rat, the induced hind paw licking time being recorded as the pain threshold. Measurements were made at 20-30 minute intervals. Only rats with stable pain reaction were used in the pharmaceutical test.
(§1) Two species of animals (mice and rats) and four types of pain testing models (i.p. 0.7% acetic acid, s.c. 5% formalin, hot plate 55° C., focused radiant heat) were used.

Kunming mice [2] = assay: Mice writhing model (acetic acid); format: in vivo; conditions: for inhibition in vivo at 20 mg/kg: ip, i.p. 20 mg/Kg, acetic acid 0.7% i.p. after 30 minutes, writhes in 5 minutes, read-out: Analgesia (inhibition ratio of writhing); for Writhing (K i): 20 mg/kg, Table 5 summary
Experimental: (§2) Kunming mice were used, with a male-female ratio of 50-50%. The test compound is administered i.p. (20 mg/Kg body weight) to the test groups, and physiological saline is administered P.O. (20 ml/Kg body weight) to the control group. After 30 minutes, acetic acid (0.7%, […] i.p.) was injected and the number of writhes was observed during a 5-minute period after acetic acid administration. The inhibition ratio of the writhing threshold was calculated. The alternating current tube is used to record the spontaneous activities for measuring sedation.
as §1

Kunming mice [3] = assay: Sedation: spontaneous activities recorded with alternating current tube; format: in vivo; conditions: for inhibition in vivo at 20 mg/kg: Mus musculus, ip, i.p. 20 mg/Kg, spontaneous activities; for Sedation (writhing model): 20 mg/kg, Table 5 summary
Experimental: as §2, with “The test compound is administered i.p. (20 mg/Kg body weight) to the test groups, and physiological saline is administered P.O. (20 ml/Kg body weight) to the control group.” left out

rat [4] = assay: Rat tail flick model (focused radiant heat); format: in vivo; conditions: for change in vivo at 20 mg/kg: Rattus norvegicus, po, read-out: increase (%) of tail flick time; for change in vivo at 20 mg/kg / After (s) tail flick time: orally 20 mg/kg; for After (s) tail flick time: 30-45 minutes after administration; for Increase (tail flick) (%): 20 mg/kg, Table 5 summary
Experimental: A 8.75 mm-projecting lamp (12 v, 50 w) was used to give out focused radiant heat. The terminal 3 cm of the tail is exposed to the heat. The intensity of the focused radiant heat is regulated by a transformer to ensure that the time required to elicit a tail flick response is within 3-5 seconds. The rat's pain threshold is pre-tested for 2-3 times; and only animals with stable reactions were used in the pharmaceutical test. The test substance is taken orally 20 mg/kg. The number of rats whose increase in time for eliciting a tail flick response is by 100% or more at the peak of the drug action (30-45 minutes after administration) is used to calculate analgesic effect.
as §1

rat [5] = assay: Rat tail flick model (focused radiant heat); format: in vivo; conditions: po, read-out: Analgesia ED50
[6] = Summary of all three algogenic models; format: in vivo; conditions: in words
Source text: All the compounds mentioned above have profound for further value development.

[7] = Rattus norvegicus, read-out: Analgesic ratio (Increase by 100%)
[8] = Rattus norvegicus, read-out: Analgesic ratio (More than 60 seconds)

SMILES: COc1cccc(CN2CCN(CC(=O)c3ccccc3)CC2)c1 [IV-25, N^1-(3-methoxybenzyl)-N^4-phenacyl piperazine]
responders at 20 mg/kg (rat [1]; [7]): 40%
responders at 20 mg/kg (rat [1]; [8]): 10%
inhibition in vivo at 20 mg/kg (Kunming mice [2]; Mus musculus): 100%
inhibition in vivo at 20 mg/kg (Kunming mice [3]): 88%
change in vivo at 20 mg/kg (rat [4]): 12%
After (s) tail flick time (rat [4]): 8.37 s

SMILES: O=C(CN1CCN(Cc2ccc3c(c2)OCO3)CC1)c1ccccc1 [IV-19, N^1-(3,4-methylenedioxybenzyl)-N^4-phenacyl piperazine]
responders at 20 mg/kg (rat [1]; [7]): 70%
responders at 20 mg/kg (rat [1]; [8]): 50%
inhibition in vivo at 20 mg/kg (Kunming mice [2]; Mus musculus): 97%
inhibition in vivo at 20 mg/kg (Kunming mice [3]): 93%
change in vivo at 20 mg/kg (rat [4]): 6.7%
After (s) tail flick time (rat [4]): 8.58 s

SMILES: CC(=O)Nc1ccc(O)cc1 [Paracetamol, reference compound]
ED50 (rat [1]; Rattus norvegicus, po, read-out: Analgesia ED50): 4320 mg/kg
ED50 (Kunming mice [2]; Mus musculus, po, Mice, Acetic acid Writhing, read-out: Analgesia ED50): 132 mg/kg
ED50 (rat [5]): > 5000 mg/kg

SMILES: O=C(CN1CCN(Cc2ccc(Cl)cc2)CC1)c1ccccc1 (as salt: hydrochloride) [IV-3, N^1-(4-chlorobenzyl)-N^4-phenacyl piperazine]
melting point: 256 to 258 °C

SMILES: CC(C(=O)c1ccccc1)N1CCN(Cc2ccc(N)cc2)CC1 (stereo not shown) (as salt: hydrochloride) [IV-13, N^1-(4-aminobenzyl)-N^4-(1-benzoylethyl)piperazine]
melting point: 244 to 246 °C (dec.)

SMILES: O=C(CN1CCN(Cc2ccc(F)cc2)CC1)c1ccc(Cl)cc1 (as salt: hydrochloride) [IV-20, N^1-(4-fluorobenzyl)-N^4-(4-chlorophenacyl)piperazine]
melting point: 246 to 248 °C (dec.)

SMILES: Cc1ccc(C(=O)CN2CCN(C(C)c3ccccc3)CC2)cc1 (stereo not shown) [IV-40, N^1-(1-phenylethyl)-N^4-(4-methylphenacyl)piperazine]
responders at 20 mg/kg (rat [1]; [7]): 10%
responders at 20 mg/kg (rat [1]; [8]): 10%
change in vivo at 20 mg/kg (rat [4]): 8%
After (s) tail flick time (rat [4]): 7.88 s

SMILES: COc1ccc(CN2CCN(C(C)C(=O)c3ccc4c(Cl)c(OC)ccc4c3)CC2)cc1 (stereo not shown) (as salt: hydrochloride) [IV-31, N^1-(4-methoxybenzyl)-N^4-[1-(5-chloro-6-methoxy-2-naphthoyl)ethyl]piperazine]
melting point: 222 to 224 °C

SMILES: O=C(CN1CCN(CCc2ccccc2)CC1)c1ccccc1 [IV-14, N^1-phenethyl-N^4-phenacyl piperazine]
Increase (hot plate) (%) (rat [1]): 100%
responders at 20 mg/kg (rat [1]; [7]): 100%
responders at 20 mg/kg (rat [1]; [8]): 70%
Writhing (K i) (Kunming mice [2]): 94
inhibition in vivo at 20 mg/kg (Kunming mice [2]; Mus musculus): 94%
Sedation (writhing model) (Kunming mice [3]): 92
inhibition in vivo at 20 mg/kg (Kunming mice [3]): 92%
Increase (tail flick) (%) (rat [4]): 37.9%
change in vivo at 20 mg/kg (rat [4]): 37.9%
After (s) tail flick time (rat [4]): 10.62 s
Analgesic effect on all three algogenic models [6]: powerful analgesic effects
Sedative effect on all three algogenic models [6]: rather significant sedative effect

melting point: 252 to 253 °C (dec.)
SMILES: COc1ccc2cc(C(=O)C(C)N3CCN(Cc4ccccc4)CC3)ccc2c1Cl (stereo not shown) (as salt: hydrochloride)

SMILES: O=C(CN1CCN(Cc2ccccc2)CC1)c1ccc(Cl)cc1 (as salt: hydrochloride) [IV-6, N^1-benzyl-N^4-(4-chlorophenacyl)piperazine]
melting point: 231 to 233 °C

SMILES: COc1ccc(OC)c(CN2CCN(CC(=O)c3ccccc3)CC2)c1 (as salt: hydrochloride) [IV-15, N^1-(2,5-dimethoxybenzyl)-N^4-phenacyl piperazine]
melting point: 238 to 240 °C

SMILES: COc1ccc2cc(C(=O)C(C)N3CCN(C(C)c4ccccc4)CC3)ccc2c1Cl (stereo not shown) (as salt: hydrochloride) [IV-43, N^1-(1-phenylethyl)-N^4-[1-(5-chloro-6-methoxy-2-naphthoyl)ethyl]piperazine]
melting point: 231 to 232 °C

SMILES: Cc1ccc(C(=O)CN2CCN(C(C)c3ccc([N+](=O)[O-])cc3)CC2)cc1 (stereo not shown) [IV-27, N^1-[1-(4-nitrophenyl)ethyl]-N^4-(4-methylphenacyl)piperazine]
responders at 20 mg/kg (rat [1]; [7]): 20%
responders at 20 mg/kg (rat [1]; [8]): 0%
Excitement (rat [1]; i.p. 20 mg/Kg): no
Sedation (rat [1]; i.p. 20 mg/Kg, grade symbols, key not given): no
inhibition in vivo at 20 mg/kg (Kunming mice [2]; Mus musculus): 57%
inhibition in vivo at 20 mg/kg (Kunming mice [3]): 74%
change in vivo at 20 mg/kg (rat [4]): 9.2%
After (s) tail flick time (rat [4]): 9.37 s

SMILES: CC(=O)Nc1ccc(CN2CCN(CC(=O)c3ccccc3)CC2)cc1 [IV-21, N^1-(4-acetamidobenzyl)-N^4-phenacyl piperazine]
Increase (hot plate) (%) (rat [1]): 100%
responders at 20 mg/kg (rat [1]; [7]): 100%
responders at 20 mg/kg (rat [1]; [8]): 50%
Writhing (K i) (Kunming mice [2]): 100
inhibition in vivo at 20 mg/kg (Kunming mice [2]; Mus musculus): 100%
Sedation (writhing model) (Kunming mice [3]): 92
inhibition in vivo at 20 mg/kg (Kunming mice [3]): 92%
Increase (tail flick) (%) (rat [4]): 28%
change in vivo at 20 mg/kg (rat [4]): 28%
After (s) tail flick time (rat [4]): 9.72 s

SMILES: Nc1ccc(C(=O)CN2CCN(Cc3ccccc3)CC2)cc1 (as salt: hydrochloride) [IV-16, N^1-benzyl-N^4-(4-aminophenacyl)piperazine]
melting point: 286 to 288 °C

SMILES: COc1ccc(CN2CCN(CC(=O)c3ccccc3)CC2)cc1 [IV-10, N^1-(4-methoxybenzyl)-N^4-phenacyl piperazine]
responders at 20 mg/kg (rat [1]; [7]): 90%
responders at 20 mg/kg (rat [1]; [8]): 70%
inhibition in vivo at 20 mg/kg (Kunming mice [2]; Mus musculus): 100%
inhibition in vivo at 20 mg/kg (Kunming mice [3]): 99%
change in vivo at 20 mg/kg (rat [4]): 9.4%
After (s) tail flick time (rat [4]): 8.81 s

SMILES: Cc1ccc(C(=O)CN2CCN([C@H](C)c3ccccc3)CC2)cc1 (as salt: hydrochloride) [IV-41, N^1—(R-1-phenylethyl)-N^4-(4-methylphenacyl)piperazine]
melting point: 231 to 232 °C

SMILES: O=C(CCN1CCN(Cc2ccccc2)CC1)c1ccccc1 (as salt: hydrochloride) [IV-17, N^1-benzyl-N^4-(2-benzoylethyl)piperazine]
melting point: 230 to 232 °C

SMILES: O=C(CN1CCN(Cc2ccc([N+](=O)[O-])cc2)CC1)c1ccccc1 (as salt: hydrochloride) [IV-4, N^1-(4-nitrobenzyl)-N^4-phenacyl piperazine]
melting point: 236 to 238 °C

SMILES: COc1ccc(C(=O)CN2CCN(Cc3ccccc3)CC2)cc1 (as salt: hydrochloride) [IV-8, N^1-benzyl-N^4-(4-methoxyphenacyl)piperazine]
melting point: 228 to 230 °C

SMILES: CC(c1ccccc1)N1CCN(CC(=O)c2ccccc2)CC1 (stereo not shown) [IV-37, N^1-(1-phenylethyl)-N^4-phenacyl piperazine]
responders at 20 mg/kg (rat [1]; [7]): 100%
responders at 20 mg/kg (rat [1]; [8]): 100%
inhibition in vivo at 20 mg/kg (Kunming mice [2]; Mus musculus): 100%
inhibition in vivo at 20 mg/kg (Kunming mice [3]): 90.1%
change in vivo at 20 mg/kg (rat [4]): 25%
After (s) tail flick time (rat [4]): 10.54 s

SMILES: O=C(CN1CCN(Cc2ccc3c(c2)OCO3)CC1)c1ccccc1 (as salt: hydrochloride) [IV-19, N^1-(3,4-methylenedioxybenzyl)-N^4-phenacyl piperazine]
melting point: 240 to 241 °C

SMILES: O=C(CN1CCN(Cc2ccccc2)CC1)c1ccc([N+](=O)[O-])cc1 (as salt: hydrochloride) [IV-9, N^1-benzyl-N^4-(4-nitrophenacyl)piperazine]
melting point: 236 to 238 °C

SMILES: O=C(CN1CCN(Cc2cccnc2)CC1)c1ccccc1 (as salt: hydrochloride) [IV-11, N^1-(3-pyridylmethyl)-N^4-phenacyl piperazine]
melting point: 225 to 226 °C

SMILES: O=C(CN1CCN(Cc2ccccc2)CC1)c1ccccc1 (as salt: hydrochloride) [IV-1, N^1-benzyl-N^4-phenacyl piperazine]
melting point: 238 to 239 °C

melting point: 219 to 222 °C
SMILES: COc1cc(CN2CCN(C(C)C(=O)c3ccc4c(Cl)c(OC)ccc4c3)CC2)cc(OC)c1OC (stereo not shown) (as salt: hydrochloride)
